# Experimental data taken from patent publication US20120165304A1, “6,7,8,9-Tetrahydro-5H-1,4,7,10a-tetraaza-cyclohept[f]indene derivatives, pharmaceutical compositions containing these compounds, their use and processes for preparing them” (BOEHRINGER INGELHEIM INTERNATIONAL GMBH, priority 2008, published 2012).
# Target: human 5-HT2C receptor (Homo sapiens, UniProt P28335, I156V/I160V/N158S)
# Assay: cell-based
# Chain of human 5-HT2C receptor (P28335 33-458 I156V/N158S/I160V limits assumed): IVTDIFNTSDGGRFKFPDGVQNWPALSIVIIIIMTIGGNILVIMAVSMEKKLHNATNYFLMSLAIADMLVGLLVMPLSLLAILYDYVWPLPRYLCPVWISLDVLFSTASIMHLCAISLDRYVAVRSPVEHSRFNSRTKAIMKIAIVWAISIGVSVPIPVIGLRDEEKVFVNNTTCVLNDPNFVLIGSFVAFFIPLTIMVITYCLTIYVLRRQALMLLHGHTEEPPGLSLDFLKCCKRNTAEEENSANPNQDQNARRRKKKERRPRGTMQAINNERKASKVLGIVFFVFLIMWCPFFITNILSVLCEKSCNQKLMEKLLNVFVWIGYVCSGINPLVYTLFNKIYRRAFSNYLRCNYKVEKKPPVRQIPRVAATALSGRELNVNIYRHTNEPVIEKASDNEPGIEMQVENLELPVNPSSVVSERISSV
row,SMILES,EC50 [nM]
1,C=C1CCN(C(=O)C2CN(c3c4c(nc5ccnn35)CCNCC4)C2)CC1 [Example 31.229],108
2,O=C(C1CN(c2c3c(nc4ccnn24)CCNCC3)C1)N1CCCCC1 [Example 31.15],342
3,NC1CCN(C(=O)C2CN(c3c4c(nc5ccnn35)CCNCC4)C2)CC1 [Example 37.42],2
4,c1ccc(Cn2c(C3CN(c4c5c(nc6ccnn46)CCNCC5)C3)nc3ccccc32)cc1 [Example 34.28],188
5,O=C(C1CN(c2c3c(nc4ccnn24)CCNCC3)C1)N1CCC(c2ccccc2)C1 (stereo not shown) [Example 31.98],45
6,c1ccc(C2CCN(c3c4c(nc5ccnn35)CCNCC4)C2)cc1 (stereo not shown) [Example 1.26],160
7,O=C(NC1CCC(F)(F)CC1)C1CN(c2c3c(nc4ccnn24)CCNCC3)C1 [Example 37.47],126
8,O=C(C1CN(c2c3c(nc4ccnn24)CCNCC3)C1)N1CC(Cc2ccccc2)C1 [Example 31.119],82
9,COC[C@H]1CCN1c1c2c(nc3ccnn13)CCNCC2 [Example 8.1],75
10,CN(Cc1ccccc1Cl)C(=O)C1CN(c2c3c(nc4ccnn24)CCNCC3)C1 [Example 31.37],68
11,CC1CN(C(=O)C2CN(c3c4c(nc5ccnn35)CCN(C)CC4)C2)CCO1 (stereo not shown) [Example 36.11],138
12,C[C@@H](c1ccccc1)N(C)C(=O)C1CN(c2c3c(nc4ccnn24)CCNCC3)C1 [Example 31.91],2010
13,O=C(C1CN(c2c3c(nc4ccnn24)CCNCC3)C1)N1CCC2(CC1)Oc1ccccc1O2 [Example 31.186],68
14,CC1(C)CCN(C(=O)C2CN(c3c4c(nc5ccnn35)CCNCC4)C2)CC1 [Example 31.47],21
15,O=C(NCC1CCCCC1)C1CN(c2c3c(nc4ccnn24)CCNCC3)C1 [Example 31.225],111
16,c1ccc(OCC2CN(c3c4c(nc5ccnn35)CCNCC4)C2)cc1 [Example 15.17],31
17,Cc1cnn2c(N3CC(C(=O)N(C)Cc4ccc(C#N)cc4)C3)c3c(nc12)CCNCC3 [Example 31.250],9
18,O=C(NCCC1CCCC1)C1CN(c2c3c(nc4ccnn24)CCNCC3)C1 [Example 37.62],10
19,CCc1cnn2c(N3CCC3)c3c(nc12)CCNCC3 [Example 25.2],12
20,O=C(NC1CCC1)C1CN(c2c3c(nc4ccnn24)CCNCC3)C1 [Example 37.92],161
21,Cn1c(=O)ccc2c(OC3CN(c4c5c(nc6ccnn46)CCNCC5)C3)cccc21 [Example 35.1],41
22,"COC[C@@H]1CCN1c1c2c(nc3ccnn13)CCNCC2 [Example 8, (S)-10-(2-Methoxymethyl-azetidin-1-yl)-6,7,8,9-tetrahydro-5H-1,4,7,10a-tetraaza-cyclohepta[f]indene]",272
23,CC(C)CCNC(=O)C1CN(c2c3c(nc4ccnn24)CCNCC3)C1 [Example 37.82],33
24,Fc1cc(Cl)ccc1OC1CN(c2c3c(nc4ccnn24)CCNCC3)C1 [Example 35.22],82
25,"CC1CNCCc2nc3ccnn3c(N3CCC3)c21 (stereo not shown) [Example 5, 10-Azetidin-1-yl-9-methyl-6,7,8,9-tetrahydro-5H-1,4,7,10a-tetraaza-cyclohepta[f]indene]",570
26,CCN1CCCN(C(=O)C2CN(c3c4c(nc5ccnn35)CCN(C)CC4)C2)CC1 [Example 36.50],81

row,SMILES,EC50 [nM]
1,O=C(C1CN(c2c3c(nc4ccnn24)CCNCC3)C1)N1CCCC(c2ccccc2)C1 (stereo not shown) [Example 31.108],113
2,C[C@H](c1ccccc1)N(C)C(=O)C1CN(c2c3c(nc4ccnn24)CCNCC3)C1 [Example 31.90],465
3,FC(F)(F)c1cccc(N2CCN(c3c4c(nc5ccnn35)CCNCC4)CC2)c1 [Example 7.3],484
4,CN(CCc1ccccc1)C(=O)C1CN(c2c3c(nc4ccnn24)CCNCC3)C1 [Example 31.61],176
5,CC(C)C1(O)CCN(C(=O)C2CN(c3c4c(nc5ccnn35)CCN(C)CC4)C2)CC1 [Example 36.26],191
6,COc1ccc(OCC2CN(c3c4c(nc5ccnn35)CCNCC4)C2)c(F)c1 [Example 15.9],7
7,Fc1ccccc1OC1CN(c2c3c(nc4ccnn24)CCNCC3)C1 [Example 1.8],5
8,O=C(C1CCCN(c2c3c(nc4ccnn24)CCNCC3)C1)N1CCCCC1 (stereo not shown) [Example 1.61],4710
9,Cc1cnn2c(N3CC(C(=O)N4CCC5(CCCC5)C4)C3)c3c(nc12)CCNCC3 [Example 31.248],25
10,O=C(C1CN(c2c3c(nc4ccnn24)CCNCC3)C1)N1CCCC(Cc2ccc(F)cc2)C1 (stereo not shown) [Example 31.101],62
11,O=C(C1CN(c2c3c(nc4ccnn24)CCNCC3)C1)N1CCC(Cc2ccccc2)CC1 [Example 31.126],47
12,O=C(C1CN(c2c3c(nc4ccnn24)CCNCC3)C1)N1CCC2(CCCCC2)CC1 [Example 31.35],50
13,CCn1c(C2CN(c3c4c(nc5ccnn35)CCNCC4)C2)nc2ccccc21 [Example 34.2],150
14,O=C(CC1CN(c2c3c(nc4ccnn24)CCNCC3)C1)N1CCc2cc(F)ccc21 [Example 33.2],20
15,CC(C)CC(C)NC(=O)C1CN(c2c3c(nc4ccnn24)CCNCC3)C1 (stereo not shown) [Example 37.99],92
16,"c1cc2nc3c(c(N4CCCOCC4)n2n1)CCNCC3 [Example 1, 10-[1,4]Oxazepan-4-yl-6,7,8,9-tetrahydro-5H-1,4,7,10a-tetraaza-cyclohepta[f]indene]",908
17,O=C(C1CN(c2c3c(nc4ccnn24)CCNCC3)C1)N1CCc2ccc(C(F)(F)F)cc21 [Example 31.157],34
18,COc1ccc2ccc(OC3CN(c4c5c(nc6ccnn46)CCNCC5)C3)cc2c1 [Example 35.11],926
19,FC(F)(F)c1cccnc1OC1CN(c2c3c(nc4ccnn24)CCNCC3)C1 [Example 20.12],959
20,CN1CCN(C(=O)C2CN(c3c4c(nc5ccnn35)CCNCC4)C2)CC1 [Example 37.35],4
21,CN1CCc2nc3ccnn3c(N3CC(C(=O)NC4CCCC(C(F)(F)F)C4)C3)c2CC1 (stereo not shown) [Example 36.45],87
22,CN1CCc2nc3ccnn3c(N3CC(C(=O)N[C@H]4CC[C@H](N(C)C)CC4)C3)c2CC1 [Example 36.16],282
23,CCNC(=O)C1CN(c2c3c(nc4ccnn24)CCNCC3)C1 [Example 37.95],742
24,CN1CCc2nc3ccnn3c(N3CC(C(=O)N4CCN(C(=O)C5CCCC5)CC4)C3)c2CC1 [Example 36.58],447
25,CC1CCCN1c1c2c(nc3ccnn13)CCNCC2 (stereo not shown) [Example 1.13],2300
26,O=C(C1CN(c2c3c(nc4ccnn24)CCNCC3)C1)N1CCCC(c2ccccc2F)C1 (stereo not shown) [Example 31.117],291

row,SMILES,EC50 [nM]
1,O=C(C1CN(c2c3c(nc4ccnn24)CCNCC3)C1)N1CCCC(c2ccccc2)CC1 (stereo not shown) [Example 31.152],77
2,Cc1cnn2c(N3CC(C(=O)N4CCC5(CCCCC5)CC4)C3)c3c(nc12)CCNCC3 [Example 31.235],84
3,Cc1cnn2c(N3CC(C(=O)N4CCc5cc(F)ccc54)C3)c3c(nc12)CCNCC3 [Example 31.245],26
4,Cc1ccccc1OC1CN(c2c3c(nc4ccnn24)CCNCC3)C1 [Example 35.5],112
5,CN(C)CCCNC(=O)C1CN(c2c3c(nc4ccnn24)CCN(C)CC3)C1 [Example 36.53],87
6,CN(Cc1ccc(Cl)c(Cl)c1)C(=O)C1CCCN(c2c3c(nc4ccnn24)CCNCC3)C1 (stereo not shown) [Example 1.57],2960
7,O=C(C1CN(c2c3c(nc4ccnn24)CCNCC3)C1)N1CCc2ccccc21 [Example 31.143],49
8,CN(Cc1ccc(Cl)cc1)C(=O)C1CN(c2c3c(nc4c(Br)cnn24)CCNCC3)C1 [Example 31.141],87
9,O=C(C1CN(c2c3c(nc4ccnn24)CCNCC3)C1)N1CCN(c2ccc(F)cc2)CC1 [Example 37.8],8
10,O=C(NCc1ccccc1)C1CCCN(c2c3c(nc4ccnn24)CCNCC3)C1 (stereo not shown) [Example 1.22],1410
11,CC(=O)N(C)c1ccc(OC2CN(c3c4c(nc5ccnn35)CCNCC4)C2)cc1 [Example 35.28],189
12,Clc1ccccc1OC1CN(c2c3c(nc4ccnn24)CCNCC3)C1 [Example 35.3],98
13,CN1CCc2nc3ccnn3c(N3CC(C(=O)N4CCC(F)(F)C4)C3)c2CC1 [Example 36.30],117
14,"CCN1CCN(C(=O)C2CN(c3c4c(nc5ccnn35)CCN(C)CC4)C2)CC1 [Example 36.1, (4-Ethyl-piperazin-1-yl)-[1-(7-methyl-6,7,8,9-tetrahydro-5H-1,4,7,10a-tetraaza-cyclohepta[f]inden-10-yl)-azetidin-3-yl]-methanone]",69
15,Cc1ccc(CN(C)C(=O)C2CN(c3c4c(nc5ccnn35)CCNCC4)C2)s1 [Example 31.24],53
16,COc1ccc(C)cc1OCC1CN(c2c3c(nc4ccnn24)CCNCC3)C1 [Example 15.7],12
17,CC1(C(=O)N2CCC3(CC2)OCc2ccccc23)CN(c2c3c(nc4ccnn24)CCNCC3)C1 [Example 32.5],6550
18,"CC1CNCCc2c1nc1ccnn1c2N1CC(C(=O)N2CCC(C)(C)C2)C1 (stereo not shown) [Example 42, (3,3-Dimethyl-pyrrolidin-1-yl)-[1-(5-methyl-6,7,8,9-tetrahydro-5H-1,4,7,10a-tetraaza-cyclohept[f]inden-10-yl)-azetidin-3-yl]-methanone]",31
19,"COc1ccc(C(O)C2CN(c3c4c(nc5ccnn35)CCNCC4)C2)cc1 (stereo not shown) [Example 19, (4-Methoxy-phenyl)-[1-(6,7,8,9-tetrahydro-5H-1,4,7,10a-tetraaza-cyclohepta[f]inden-10-yl)-azetidin-3-yl]-methanol]",139
20,O=C(C1CN(c2c3c(nc4ccnn24)CCNCC3)C1)N1CC[C@@H](c2ccccc2)C1 [Example 31.223],39
21,Clc1cccnc1OC1CN(c2c3c(nc4ccnn24)CCNCC3)C1 [Example 20.11],116
22,COc1cccc(COC2CN(c3c4c(nc5ccnn35)CCNCC4)C2)c1 [Example 20.13],347
23,CN(Cc1ccc(Br)cc1)C(=O)C1CN(c2c3c(nc4ccnn24)CCNCC3)C1 [Example 31.80],30
24,Cc1cccc2[nH]c(C3CN(c4c5c(nc6ccnn46)CCNCC5)C3)nc12 [Example 34.5],246
